Results taken from patent publication US20220332700A1, “NOVEL APOPTOSIS SIGNAL-REGULATING KINASE 1 INHIBITORS” (MANKIND PHARMA LTD, priority 2019, published 2022).

Experiments:
Human ASK1 = target: T1, Human ASK1 (Homo sapiens, UniProt Q99683); assay: ASK1 Cell Based Assay (phospho p38 read out in hASK1 transfected HEK293T-AP1 cells); details: HEK293T-AP1 cells, 1 mM hydrogen peroxide, phospho p38; read-out: Cell Based Assay IC50
T1 construct: expressed in transfected cells; host or cells: HEK293T-AP1
T1 sequence (Q99683 1-1374): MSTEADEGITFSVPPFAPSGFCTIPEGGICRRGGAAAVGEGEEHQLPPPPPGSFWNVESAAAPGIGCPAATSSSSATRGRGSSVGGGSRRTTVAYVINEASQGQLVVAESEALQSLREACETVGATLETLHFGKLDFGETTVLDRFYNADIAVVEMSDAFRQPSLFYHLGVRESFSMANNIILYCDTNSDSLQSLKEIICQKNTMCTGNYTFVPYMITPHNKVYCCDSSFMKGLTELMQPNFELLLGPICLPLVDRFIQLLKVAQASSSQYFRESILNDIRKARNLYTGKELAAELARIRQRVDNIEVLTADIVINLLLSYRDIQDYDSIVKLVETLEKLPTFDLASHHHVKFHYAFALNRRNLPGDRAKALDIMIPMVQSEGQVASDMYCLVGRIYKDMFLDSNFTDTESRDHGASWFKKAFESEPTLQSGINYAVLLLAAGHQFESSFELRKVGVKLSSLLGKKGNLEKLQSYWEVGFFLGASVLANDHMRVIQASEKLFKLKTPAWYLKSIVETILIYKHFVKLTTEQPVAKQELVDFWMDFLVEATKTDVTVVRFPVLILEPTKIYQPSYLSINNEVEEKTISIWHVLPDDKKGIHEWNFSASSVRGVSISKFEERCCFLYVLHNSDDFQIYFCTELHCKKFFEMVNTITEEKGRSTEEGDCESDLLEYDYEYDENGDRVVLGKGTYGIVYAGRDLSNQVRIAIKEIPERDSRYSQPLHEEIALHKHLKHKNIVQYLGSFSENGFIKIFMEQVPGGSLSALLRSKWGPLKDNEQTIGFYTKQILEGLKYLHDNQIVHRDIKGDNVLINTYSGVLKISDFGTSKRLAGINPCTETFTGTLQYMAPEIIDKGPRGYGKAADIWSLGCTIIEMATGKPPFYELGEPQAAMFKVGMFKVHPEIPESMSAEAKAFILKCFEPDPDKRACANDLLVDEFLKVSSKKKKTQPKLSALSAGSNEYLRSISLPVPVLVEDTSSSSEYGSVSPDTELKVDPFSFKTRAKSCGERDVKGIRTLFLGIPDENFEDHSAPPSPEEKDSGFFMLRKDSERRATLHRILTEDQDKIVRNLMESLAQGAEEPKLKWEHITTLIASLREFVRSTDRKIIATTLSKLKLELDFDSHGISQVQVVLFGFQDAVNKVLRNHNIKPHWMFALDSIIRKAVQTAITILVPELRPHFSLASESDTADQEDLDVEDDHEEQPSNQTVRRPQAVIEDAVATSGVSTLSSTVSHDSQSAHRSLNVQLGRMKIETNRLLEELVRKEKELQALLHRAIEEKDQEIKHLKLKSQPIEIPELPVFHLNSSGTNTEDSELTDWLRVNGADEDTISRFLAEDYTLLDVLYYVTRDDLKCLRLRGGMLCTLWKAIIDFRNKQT
How it was run: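 HEK293T-AP1 cells transfected with hASK1, after 24 h treated with compounds for 24 h (0.2% DMSO), then stimulated with 1 mM H2O2 for 1 h with compounds present.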

recombinant ASK1 = target: T2, recombinant ASK1 (Homo sapiens, UniProt Q99683); assay: ASK1 Biochemical Assay (HTRF KinEASE-STK S3); details: ATP 100 μM; read-out: Biochemical Assay IC50
T2 construct: purchased Carna Biosciences
How it was run: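 Recombinant ASK1 (5 ng) preincubated with compound 1 h at 23 °C in MOPS pH 7 buffer with Mg-acetate, DTT, NP40, glycerol, BSA and 1% DMSO. Inhibition calculated against vehicle after substrate-blank subtraction.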

IC50 (Human ASK1) | IC50 (recombinant ASK1) | Compound
> 1000 nM | < 100 nM | CC(C)n1cnnc1-c1cccc(N2CCN(c3ccc(N4CCN(C)C(=O)C4)cc3)C2=O)n1 [Example 1135, 4-(4-(3-(6-(4-isopropyl-4H-1,2,4-triazol-3-yl)pyridin-2-yl)-2-oxoimidazolidin-1-yl)phenyl)-1-methylpiperazin-2-one]
> 1000 nM | < 100 nM | CC(C)n1cnnc1-c1cccc(N2CCN(c3ccc(C(=O)NC4CC4)nc3)C2=O)n1 [Example 1109, N-cyclopropyl-5-(3-(6-(4-isopropyl-4H-1,2,4-triazol-3-yl)pyridin-2-yl)-2-oxoimidazolidin-1-yl)pyridine-2-carboxamide]
> 1000 nM | < 100 nM | CC(C)n1cnnc1-c1cccc(N2CCN(c3ccc(N4CC(NC5CC5)C4)cc3)C2=O)n1 [Example 1094, 1-(4-(3-(cyclopropylamino)azetidin-1-yl)phenyl)-3-(6-(4-isopropyl-4H-1,2,4-triazol-3-yl)pyridin-2-yl)imidazolidin-2-one]
> 100 nM | < 50 nM | CC(C)n1cnnc1-c1cccc(N2CCN(c3ccc(NC4CCOCC4)cc3)C2=O)n1 [Example 1081, 1-(6-(4-isopropyl-4H-1,2,4-triazol-3-yl)pyridin-2-yl)-3-(4-(tetrahydro-2H-pyran-4-ylamino)phenyl)imidazolidin-2-one]
> 10000 nM | > 1000 nM | CC(C)n1cnnc1-c1cccc(N2CCN(c3cc(-c4ccc(S(C)(=O)=O)nc4)ccc3F)C2=O)n1 [Example 1021, 1-(2-fluoro-5-(6-(methylsulfonyl)pyridin-3-yl)phenyl)-3-(6-(4-isopropyl-4H-1,2,4-triazol-3-yl)pyridin-2-yl)imidazolidin-2-one]
> 1000 nM | > 100 nM | CC(C)n1cnnc1-c1cccc(N2CCN(c3cccc(N4CCOCC4)c3)C2=O)n1 [Example 1108, 1-(6-(4-isopropyl-4H-1,2,4-triazol-3-yl)pyridin-2-yl)-3-(3-morpholinophenyl)imidazolidin-2-one]
> 1000 nM | < 100 nM | CC(C)n1cnnc1-c1cccc(N2CCN(c3ccc(N(C)C)cc3)C2=O)n1 [Example 1041, 1-(4-(dimethylamino)phenyl)-3-(6-(4-isopropyl-4H-1,2,4-triazol-3-yl)pyridin-2-yl)imidazolidin-2-one]
> 1000 nM | < 100 nM | CC(C)n1cnnc1-c1cccc(N2CCN(c3ccncc3)C2=O)n1 [Example 1034, 1-(6-(4-isopropyl-4H-1,2,4-triazol-3-yl)pyridin-2-yl)-3-(pyridin-4-yl)imidazolidin-2-one]
> 1000 nM | < 100 nM | CC(C)n1cnnc1-c1cccc(N2CCNC2=O)n1 [Example 1022, 1-(6-(4-isopropyl-4H-1,2,4-triazol-3-yl)pyridin-2-yl)imidazolidin-2-one]
> 100 nM | < 100 nM | CC(C)n1cnnc1-c1cccc(N2CCN(c3ccc(N4CC(F)C4)cc3)C2=O)n1 [Example 1096, 1-(4-(3-fluoroazetidin-1-yl)phenyl)-3-(6-(4-isopropyl-4H-1,2,4-triazol-3-yl)pyridin-2-yl)imidazolidin-2-one]
> 1000 nM | < 100 nM | CC(C)n1cnnc1-c1cccc(N2CCN(c3ccc(C(C#N)N4CCOCC4)nc3)C2=O)n1 (stereo not shown) [Example 1113, 2-(5-(3-(6-(4-isopropyl-4H-1,2,4-triazol-3-yl)pyridin-2-yl)-2-oxoimidazolidin-1-yl)pyridin-2-yl)-2-morpholinoacetonitrile]
> 10000 nM | > 100 nM | COc1ccc(-c2ccc(S(C)(=O)=O)nc2)cc1N1CCN(c2cccc(-c3nncn3C(C)C)n2)C1=O [Example 1019, 1-(6-(4-isopropyl-4H-1,2,4-triazol-3-yl)pyridin-2-yl)-3-(2-methoxy-5-(6-(methylsulfonyl)pyridin-3-yl)phenyl)imidazolidin-2-one]
> 100 nM | < 100 nM | CC(C)n1cnnc1-c1cccc(N2CCN(c3ccc(-n4ccnc4)nc3)C2=O)n1 [Example 1104, 1-(6-(1H-imidazol-1-yl)pyridin-3-yl)-3-(6-(4-isopropyl-4H-1,2,4-triazol-3-yl)pyridin-2-yl)imidazolidin-2-one]
> 100 nM | < 100 nM | CC(C)n1cnnc1-c1cccc(N2CCN(c3ccc(N4CC(C(N)=O)C4)cc3)C2=O)n1 [Example 1093, 1-(4-(3-(6-(4-isopropyl-4H-1,2,4-triazol-3-yl)pyridin-2-yl)-2-oxoimidazolidin-1-yl)phenyl)azetidine-3-carboxamide]
> 1000 nM | < 100 nM | COc1cc(S(C)(=O)=O)c(C)cc1N1CCN(c2cccc(-c3nncn3C(C)C)n2)C1=O [Example 1055, 1-(6-(4-isopropyl-4H-1,2,4-triazol-3-yl)pyridin-2-yl)-3-(2-methoxy-5-methyl-4-(methylsulfonyl)phenyl)imidazolidin-2-one]
> 1000 nM | < 100 nM | CC(C)n1cnnc1-c1cccc(N2CCN(c3ccc(OCCS(C)(=O)=O)cc3)C2=O)n1 [Example 1126, 1-(4-(2-(methylsulfonyl)ethoxy)phenyl)-3-(6-(4-isopropyl-4H-1,2,4-triazol-3-yl)pyridin-2-yl)imidazolidin-2-one]
> 100 nM | < 100 nM | CC(C)n1cnnc1-c1cccc(N2CCN(c3ccc(C(=O)N4CCOCC4)cc3)C2=O)n1 [Example 1077, 1-(6-(4-isopropyl-4H-1,2,4-triazol-3-yl)pyridin-2-yl)-3-(4-(morpholine-4-carbonyl)phenyl)imidazolidin-2-one]
> 1000 nM | 25 nM | CC(C)n1cnnc1-c1cccc(N2CCN(c3cccc(-c4ccc(S(C)(=O)=O)nc4)c3)C2=O)n1 [Example 1010, 1-(6-(4-isopropyl-4H-1,2,4-triazol-3-yl)pyridin-2-yl)-3-(3-(6-(methylsulfonyl)pyridin-3-yl)phenyl)imidazolidin-2-one]
> 1000 nM | < 100 nM | CC(C)NC1CN(c2ccc(N3CCN(c4cccc(-c5nncn5C(C)C)n4)C3=O)cc2)C1 [Example 1088, 1-(6-(4-isopropyl-4H-1,2,4-triazol-3-yl)pyridin-2-yl)-3-(4-(3-(isopropylamino)azetidin-1-yl)phenyl)imidazolidin-2-one]
> 1000 nM | < 100 nM | COc1ccc(N2CCN(c3cccc(-c4nncn4C(C)C)n3)C2=O)cc1 [Example 1039, 1-(6-(4-isopropyl-4H-1,2,4-triazol-3-yl)pyridin-2-yl)-3-(4-methoxyphenyl)imidazolidin-2-one]
> 1000 nM | < 100 nM | CC(C)n1cnnc1-c1cccc(N2CCN(c3ccc(S(C)(=O)=O)c(N4CCCCC4)c3)C2=O)n1 [Example 1063, 1-(6-(4-isopropyl-4H-1,2,4-triazol-3-yl)pyridin-2-yl)-3-(4-(methylsulfonyl)-3-(piperidin-1-yl)phenyl)imidazolidin-2-one]
> 1000 nM | < 100 nM | CC1CN(c2ccc(N3CCN(c4cccc(-c5nncn5C(C)C)n4)C3=O)cc2)C(=O)CO1 (stereo not shown) [Example 1076, 4-(4-(3-(6-(4-isopropyl-4H-1,2,4-triazol-3-yl)pyridin-2-yl)-2-oxoimidazolidin-1-yl)phenyl)-6-methylmorpholin-3-one]
< 1000 nM | < 100 nM | CC(C)n1cnnc1-c1cccc(N2CCN(c3ccc(S(=O)(=O)C4CC4)cc3)C2=O)n1 [Example 1025, 1-(4-(cyclopropylsulfonyl)phenyl)-3-(6-(4-isopropyl-4H-1,2,4-triazol-3-yl)pyridin-2-yl)imidazolidin-2-one]
